Laboratory results: patent publication US20250041277A1, “METHODS AND DOSING REGIMENS COMPRISING A CDK2 INHIBITOR AND A CDK4 INHIBITOR FOR TREATING CANCER” (PFIZER INC., priority 2021, published 2025)

Experiments:
MCF7 breast cancer model = assay: In vivo efficacy, HR+/HER2− MCF7 breast cancer model (Example 4); design: species or system NSG mice; settings: MCF7, Day 29; PO BID: PF-07104091 120 mpk, PF-07220060 60 mpk, PF-06873600 30 mpk, palbociclib 10 mpk; fulvestrant 10 mpk SC
Procedure: (§1) Female NSG mice (Jackson Lab) were subcutaneously implanted with fragment (27 mm^3 to 64 mm^3 size) into the dorsal region. All mice for HCC1428, MCF7 and ST941 PBR studies were supplemented with 8.5 μg/mL estradiol water (β-Estradiol Sigma-Aldrich, cat #E2758-5G) and gave ad libitum till end of study. For the in vivo efficacy studies, tumor volume and body weights were measured twice a week. Tumor volume was calculated using the [(Length×Width×Width)/2)] formula. TGI was calculated as 100*(1−ΔT/ΔC). The ΔC (ΔT) was obtained by subtracting the mean tumor burden in the vehicle (treated) group on the first day of treatment (Day 0) from the mean tumor burden in vehicle (treated) group on the assessment day. Statistical analysis was performed using ANCOVA when the mean tumor volume in vehicle treated mice reached tumor cutoff size.
(§2) The MCF7 model was established by implanting donor tumor fragments into recipient mice. To establish the MCF7 donor mice, tumor cells (5×10^6 cell/mouse with 50% Cultrex® Basement Membrane Matrix) were subcutaneously implanted in female NSG mice. Once reaching a range of 700 to 800 mm^3, donor tumors were subsequently transplanted into secondary recipient mice for a study expansion. […] PF-07104091 (lot 022), PF-07220060 (lot CPo126812-01-SY-5700-01), PF-06873600 (lot 022) and PD-0332991 (lot GR08498) were administered (PO) BID (7 hr apart) while fulvestrant (lot 20160224-2) at 10 mg/kg, SC twice in the first week, then weekly afterwards. All mice received treatment continuously until Day 29. TGI was assessed on Day 29 post first dose

CALU6 = assay: Combinatorial activity in LUAD cell line CALU6; format: cell-based; settings: Homo sapiens, Calu-6; CALU6, WT; single agent; read-out: (nM) s.a.
Procedure: (§3) Combinatorial activity of PF-07104091 and PF-07220060 was assessed in LUADs as single agents (s.a.) or in combination.

CAL12T = assay: Combinatorial activity in LUAD cell line CAL12T; format: cell-based; settings: Homo sapiens, CAL-12T, WT, single agent, read-out: (nM) s.a.
Procedure: as §3

[1] = system: HCC1428 breast cancer model; assay: In vivo efficacy, HR+/HER2− HCC1428 breast cancer model (Example 4); design: species or system NSG mice; settings: HCC1428, Day 42; PO BID: PF-07104091 120 mpk, PF-07220060 60 mpk, PF-06873600 30 mpk, palbociclib 10 mpk; fulvestrant 10 mpk SC
Procedure: as §1
as §2, with “The HCC1428” for “The MCF7”, “implanting passage 1” for “implanting donor”, “the HCC1428” for “the MCF7”, “Day 42.” for “Day 29.”, “Day 42” for “Day 29”, “first dose.” for “first dose”

[2] = system: NCI-H1792 lung adenocarcinoma (LUAD) cells; assay: Spheroid growth inhibition (SGI) assay, NCI-H1792; format: cell-based; settings: NCI-H1792 spheroids; 30 nM palbociclib, 300 nM PF-07220060, 300 nM PF-07104091; 14 days
Procedure: NCI-H1792 and NCI-H23 lung adenocarcinoma (LUAD) cells lines were obtained from ATCC and maintained in RPMI 1640 medium supplemented with 10% fetal bovine serum and penicillin-streptomycin as per ATCC guidelines. Cells were maintained in humidified incubator at 37° C. with 5% CO2.
Spheroid assays were performed in 96 well ultralow attachment plates (ULA-96U) from Nexcelom & Thermo Fisher Scientific. […] To aid spheroid formation, dispensed cells were centrifuged at 220×g for 6 minutes in the ultralow attachment plates and allowed to form compact spheroids for 4 days prior to the initiation of treatment. […] DMSO (0.01%) was used as the vehicle control. DMSO and all compounds were diluted in cell medium. Medium and compounds were replenished twice per week, with 3 and 4-day intervals. Replenishment was executed by aspirating 150 μL of medium per well without disturbing the spheroid and then adding the same volume of premixed medium/compound solution to spheroids. Spheroid diameter was quantified immediately following each medium change twice a week (on every 3rd or 4th day) throughout the duration of the assay.
Average diameters of tumor spheroids were plotted in GraphPad Prism 8 and the AUC calculated. AUC baseline was determined by the average tumor spheroid diameter at Day 0 in the vehicle (DMSO) controls. Spheroid growth inhibition, or SGI, was calculated as follows: SGI=(1−AUC treatment/AUC DMSO)×100%. SGI for all treatment arms was derived at the timepoint when the vehicle (DMSO) treated spheroids reach their maximal diameter (usually close to 1 mm but this can differ among cell lines); this corresponds to the last time point taken for the vehicle (DMSO) treated spheroids. SEM was calculated based on n=10 to 12 wells per test group.
Growth of lung adenocarcinoma multicellular tumor spheroids (MCTS) was monitored over time to assess: (i) amplitude of response (SGI) and (ii) duration of response to the CDK4 inhibitor PF-07220060 as a single agent, and in combination with the CDK2 inhibitor PF-07104091.

NCI-H2347 = assay: Combinatorial activity in LUAD cell line NCI-H2347; format: cell-based; settings: Homo sapiens; NCI-H2347, KRAS L19F; single agent; read-out: (nM) s.a.
Procedure: as §3

SMILES | TGI % (MCF7 breast cancer model) | IC50 (CALU6) | IC50 (CAL12T) | TGI % [1] | SGI (%) [2] | IC50 (NCI-H2347)
COCc1cc(C(=O)Nc2cc([C@H]3CC[C@@H](OC(=O)NC(C)C)C3)[nH]n2)n(C)n1 [PF-07104091, (1R,3S)-3-[3-({[3-(methoxymethyl)-1-methyl-1H-pyrazol-5-yl]carbonyl}amino)-1H-pyrazol-5-yl]cyclopentyl propan-2-ylcarbamate] | 60% | 268 nM | 220 nM | 79% | 12% | 364 nM
CC(C)n1c(C(C)(C)O)nc2c(F)cc(-c3nc(N[C@@H]4CCOC[C@H]4O)ncc3Cl)cc21 [PF-07220060, 1,5-anhydro-3-({5-chloro-4-[4-fluoro-2-(2-hydroxypropan-2-yl)-1-(propan-2-yl)-1H-benzimidazol-6-yl]pyrimidin-2-yl}amino)-2,3-dideoxy-D-threo-pentitol] | 79% | 155 nM | 210 nM | 70% | 81% | 70 nM
